The results in this text go back to ChEMBL document CHEMBL4354853, “Design, Synthesis, and Biological Evaluation of Imidazo[1,2-a]pyridine Derivatives as Novel PI3K/mTOR Dual Inhibitors” (J Med Chem, 2020).

The nature of data set [1]: Cmax in Sprague-Dawley rat at 5 mg/kg, po by LC-MS/MS analysis. It is filed as ADME, organism-based. More on the design: dose 5 mg/kg, route oral. The settings on record: in vivo.
Data set [2] can be described thus: Oral bioavailability in Sprague-Dawley rat at 5 mg/kg by LC-MS/MS analysis. It is filed as ADME, organism-based. The settings on record: in vivo.
Data set [3] in a line: Half life in Sprague-Dawley rat at 1 mg/kg, iv by LC-MS/MS analysis. The format is ADME, organism-based. The settings on record: in vivo.
Data set [4] in a line: Half life in Sprague-Dawley rat at 5 mg/kg, po by LC-MS/MS analysis. The following applies: in vivo. It is filed as ADME, organism-based.
Data set [5] is described as follows: AUC (0 to infinity) in Sprague-Dawley rat at 1 mg/kg, iv by LC-MS/MS analysis. The format is ADME, organism-based. More on the design: dose 1 mg/kg, time infinity, route intravenous. The settings on record: in vivo.
The nature of data set [6]: Drug level in tumor of nude BALB/c mouse xenografted with human HCT116 cells at 20 mg/kg, po administered as single dose measured after 48 hrs by LC-MS/MS analysis. It is filed as ADME, organism-based, Neoplasm. The following applies: read-out: Drug uptake. For orientation: In xenograft studies the graft and the host belong to different species.
Data set [7] in a line: AUC (0 to infinity) in Sprague-Dawley rat at 5 mg/kg, po by LC-MS/MS analysis. The format is ADME, organism-based. More on the design: dose 5 mg/kg, route oral, time infinity. The settings on record: in vivo.
A short description of data set [8]: Volume of distribution at steady state in Sprague-Dawley rat at 1 mg/kg, iv by LC-MS/MS analysis. It is filed as ADME, organism-based. The settings on record: in vivo, read-out: Vdss.
Data set [9] can be described thus: Clearance in Sprague-Dawley rat at 1 mg/kg, iv by LC-MS/MS analysis. The format is ADME, organism-based. The settings on record: in vivo.

On to `COc1ncc(-c2ccc3ncc(-c4nnc(CCN5CCN(C)CC5)o4)n3c2)cc1NS(=O)(=O)c1ccc(F)cc1F`, for which the highest concentration (Cmax) in data set [1] stood at 553 ng/mL. Further, the bioavailability in [2] came to 26.8%. Also, the half-life in [3] was 4.71 h; in data set [4], 7.94 h. The area under the curve AUC(0-inf) in data set [5] came to 2960 ng·h/mL; in data set [7] it was 3960 ng·h/mL. For the same molecule, in [6], the concentration at 48 h came out at 600 nM. Besides, the Vd in data set [8] is 0.69 L/kg. In [9], this molecule showed a clearance of 5.66 mL/min/kg.

For orientation: Cmax means the peak of the concentration-time curve. As a reminder, the bioavailability is dose-corrected exposure relative to a reference, in per cent. A high value points to much systemic uptake. Broadly, the half-life is how long it takes for the measured level to halve. A lower half-life goes with rapid decline. A word on the AUC(0-inf): it is total exposure, with the tail of the curve extrapolated. Broadly, the clearance is a measure of how efficiently the substance is removed, as volume per time. A higher clearance goes with efficient removal.
